Measured values: article PMC5447021, “TNF Lectin-Like Domain Restores Epithelial Sodium Channel Function in Frameshift Mutants Associated with Pseudohypoaldosteronism Type 1B” (Frontiers in Immunology, 2017)

Tests used:
γ-ENaC = conditions: HEK-293, 5 and 10 min; cited from earlier work
δ-hENaC = target: T1, δ-hENaC (Homo sapiens, UniProt P51172); design: method as in PMID 24077967; conditions: δ-hENaC alone, control current 60.6 ± 2.5 pA, mean ± S.E.; cited from earlier work
T1 construct: expressed in transfected cells; host or cells: HEK-293
T1 sequence (P51172 1-638 isoform P51172-1): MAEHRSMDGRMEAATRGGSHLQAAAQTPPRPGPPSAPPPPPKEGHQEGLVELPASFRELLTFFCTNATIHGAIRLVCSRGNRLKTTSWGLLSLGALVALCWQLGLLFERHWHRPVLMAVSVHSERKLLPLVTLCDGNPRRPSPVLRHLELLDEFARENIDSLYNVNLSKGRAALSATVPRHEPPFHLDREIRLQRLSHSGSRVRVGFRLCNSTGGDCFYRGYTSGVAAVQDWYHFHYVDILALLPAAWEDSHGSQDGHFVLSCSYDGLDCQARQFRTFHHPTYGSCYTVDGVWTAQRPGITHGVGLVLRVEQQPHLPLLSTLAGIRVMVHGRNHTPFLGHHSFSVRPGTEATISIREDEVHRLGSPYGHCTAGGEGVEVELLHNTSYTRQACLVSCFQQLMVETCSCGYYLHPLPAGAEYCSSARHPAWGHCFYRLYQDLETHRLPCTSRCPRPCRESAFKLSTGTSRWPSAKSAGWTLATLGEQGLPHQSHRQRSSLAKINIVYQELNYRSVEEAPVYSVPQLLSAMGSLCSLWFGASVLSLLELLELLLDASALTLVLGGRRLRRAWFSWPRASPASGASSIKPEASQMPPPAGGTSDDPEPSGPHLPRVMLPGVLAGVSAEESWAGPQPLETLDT

rat lung transplantation = conditions: instilled intratracheally into rats prior to lung transplantation; cited from earlier work
Text: (§1) Like TNF, TIP peptide can influence regulation of alveolar fluid balance.

flooded rat lung = conditions: in situ and in vivo; cited from earlier work
Text: as §1

[1] = tested on: αR438fs (co-expressed with βγ-ENaC); assay: Whole-cell patch clamp, αR438fs + WT βγ; type: cell-based, human; conditions: read-out: EC50, solnatide, HEK-293, whole-cell, -100 mV, n = 7
Procedure: Point mutations of α-, β-, γ- and δ-hENaC and PHA1B frameshift mutations of α-hENaC were prepared with the QuikChange Lightning Site-Directed Mutagenesis Kit (Agilent Technologies, CA, USA). Mutagenic primers were designed individually with the Primer Design Program provided on the producer’s website or for the frameshift mutations the same base changes as reported in patients (see Table 2) were performed. Primers were ordered from Sigma-Aldrich, Vienna, Austria.
HEK-293 cells were transfected 1 day after cell seeding using X-tremeGENE HP DNA transfection reagent (Roche Diagnostics, Mannheim, Germany) according to the manufacturer’s protocol. A set of WT or mutant αβγ- or δβγ-hENaC, or α-, β-, γ-, or δ-hENaC alone was used, and the ratio of DNA to transfection reagent was 1:3. The expression was highest 48–72 h after transfection.
Electrophysiological experiments were performed as described in detail by Shabbir et al. ([16]). […] Currents were recorded with the patch clamp method in the whole-cell mode. The chamber contained 1 ml of the bath solution of the following composition (in mM): 145 NaCl, 2.7 KCl, 1.8 CaCl2, 2 MgCl2, 5.5 glucose, and 10 HEPES, adjusted to pH 7.4 with 1 M NaOH solution. Micropipettes were pulled from thin-walled borosilicate glass capillaries (Harvard Apparatus, Holliston, MA, USA) with a DMZ Zeitz Puller to obtain electrode resistances ranging from 2 to 5 MΩ. […]

C[C@@H]1NC(=O)CNC(=O)[C@H](CCC(=O)O)NC(=O)[C@@H]2CCCN2C(=O)[C@H]([C@@H](C)O)NC(=O)[C@H](CCC(=O)O)NC(=O)[C@H](CCCNC(=N)N)NC(=O)[C@H](CCC(N)=O)NC(=O)CNC(=O)[C@@H](N)CSSC[C@@H](C(=O)O)NC(=O)[C@H](Cc2ccc(O)cc2)NC(=O)[C@H](Cc2c[nH]c3ccccc23)NC(=O)[C@@H]2CCCN2C(=O)[C@H](CCCCN)NC(=O)[C@H](C)NC(=O)[C@H](CCC(=O)O)NC1=O [solnatide, L-cysteine, L-cysteinylglycyl-L-glutaminyl-L-arginyl-L-α-glutamyl-L-threonyl-L-prolyl-L-α-glutamylglycyl-L-alanyl-L-α-glutamyl-L-alanyl-L-lysyl-L-prolyl-L-tryptophyl-L-tyrosyl-, cyclic (1→17)-disulfide]
Membrane abundance, solnatide (γ-ENaC): only slight
Maximal induced current, solnatide (δ-hENaC): 15.6 ± 7.9 pA
Lung function (rat lung transplantation): significantly improved lung function
Alveolar fluid reabsorption (flooded rat lung): activate fluid reabsorption in in situ and in vivo flooded rat lung models
EC50 [1]: 56.6 ± 8 nM
